Series [1] concerns the target T1, recombinant human meprin β (Homo sapiens, UniProt Q16820).
T1 sequence (Q16820 62-701): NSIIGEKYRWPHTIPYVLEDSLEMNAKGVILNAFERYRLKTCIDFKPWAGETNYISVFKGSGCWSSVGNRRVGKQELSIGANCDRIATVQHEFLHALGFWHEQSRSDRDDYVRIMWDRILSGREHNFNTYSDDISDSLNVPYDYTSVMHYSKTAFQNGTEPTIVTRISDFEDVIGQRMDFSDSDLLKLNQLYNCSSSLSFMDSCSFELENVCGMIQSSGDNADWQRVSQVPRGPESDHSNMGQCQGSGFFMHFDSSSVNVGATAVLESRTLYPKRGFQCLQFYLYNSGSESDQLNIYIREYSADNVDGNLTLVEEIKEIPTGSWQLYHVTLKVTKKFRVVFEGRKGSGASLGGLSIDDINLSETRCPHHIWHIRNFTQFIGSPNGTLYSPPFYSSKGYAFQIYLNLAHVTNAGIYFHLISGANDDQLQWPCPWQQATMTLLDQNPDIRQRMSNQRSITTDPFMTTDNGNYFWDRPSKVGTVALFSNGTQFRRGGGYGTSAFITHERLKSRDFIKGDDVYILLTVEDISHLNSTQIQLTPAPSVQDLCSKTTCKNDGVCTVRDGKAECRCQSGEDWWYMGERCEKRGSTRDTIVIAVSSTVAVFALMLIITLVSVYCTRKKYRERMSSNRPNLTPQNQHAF
The series can be described thus: meprin β inhibition, quenched fluorogenic peptide substrate assay. Format: biochemical.

Another series addresses MMP9 (Homo sapiens, UniProt P14780). The series can be described thus: off-target proteinase inhibition MMP9. Particulars: read-out: Relative enzyme activity MMP9. Format: biochemical.
Series [2] in a line: cell-viability assay. Particulars: human, Hep-G2 cells. Type of series: cell-based.
Series [3] deals with T2, recombinant human meprin α (Homo sapiens, UniProt Q16819).
T2 sequence (Q16819 66-746): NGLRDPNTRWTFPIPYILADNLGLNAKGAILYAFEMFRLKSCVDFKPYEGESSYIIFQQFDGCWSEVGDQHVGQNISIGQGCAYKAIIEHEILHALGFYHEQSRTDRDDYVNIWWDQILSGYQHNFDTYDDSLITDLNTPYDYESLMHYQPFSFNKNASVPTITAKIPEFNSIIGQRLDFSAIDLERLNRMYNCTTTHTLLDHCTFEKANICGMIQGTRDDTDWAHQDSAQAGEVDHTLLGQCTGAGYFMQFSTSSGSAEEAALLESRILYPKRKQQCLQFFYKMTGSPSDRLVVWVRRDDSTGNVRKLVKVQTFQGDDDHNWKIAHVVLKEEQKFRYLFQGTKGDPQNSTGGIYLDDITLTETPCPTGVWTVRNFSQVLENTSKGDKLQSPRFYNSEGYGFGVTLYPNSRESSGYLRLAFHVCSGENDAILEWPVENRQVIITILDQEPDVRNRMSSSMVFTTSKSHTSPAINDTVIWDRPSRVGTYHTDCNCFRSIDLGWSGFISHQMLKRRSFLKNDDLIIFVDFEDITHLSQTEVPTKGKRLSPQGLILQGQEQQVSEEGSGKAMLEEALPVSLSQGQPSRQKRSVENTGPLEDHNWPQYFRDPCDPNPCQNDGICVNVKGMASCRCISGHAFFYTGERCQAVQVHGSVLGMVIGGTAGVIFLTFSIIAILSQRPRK
The series can be described thus: meprin α inhibition, quenched fluorogenic peptide substrate assay. Format: biochemical. Particulars: for SF: selectivity factor (K i app meprin β/K i app meprin α): meprin α over meprin β.

A further series deals with T3, ADAM10 (Homo sapiens, UniProt O14672).
T3 sequence (O14672 214-748): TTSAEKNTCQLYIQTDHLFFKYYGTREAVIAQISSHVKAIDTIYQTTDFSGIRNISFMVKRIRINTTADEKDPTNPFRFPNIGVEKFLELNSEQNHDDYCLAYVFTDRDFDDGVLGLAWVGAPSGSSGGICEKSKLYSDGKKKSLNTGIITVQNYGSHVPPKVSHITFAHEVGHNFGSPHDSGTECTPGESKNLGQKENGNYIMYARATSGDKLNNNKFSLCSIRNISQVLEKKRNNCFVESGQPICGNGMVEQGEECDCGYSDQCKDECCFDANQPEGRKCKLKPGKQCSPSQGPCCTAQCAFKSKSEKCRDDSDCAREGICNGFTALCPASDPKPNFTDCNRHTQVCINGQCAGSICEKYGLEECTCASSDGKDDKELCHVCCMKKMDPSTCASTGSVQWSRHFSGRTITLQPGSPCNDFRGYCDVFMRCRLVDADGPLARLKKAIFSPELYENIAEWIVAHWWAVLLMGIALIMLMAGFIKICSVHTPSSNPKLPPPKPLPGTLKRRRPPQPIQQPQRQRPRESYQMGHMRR
The series can be described thus: off-target proteinase inhibition ADAM10. Format: biochemical. Particulars: read-out: Relative enzyme activity ADAM10.

Series [4] is described as follows: cell-viability assay. Type of series: cell-based. Particulars: human, SH-SY5Y cells.
The target in another series is T4, MMP2 (Homo sapiens, UniProt P08253).
T4 sequence (P08253 110-660): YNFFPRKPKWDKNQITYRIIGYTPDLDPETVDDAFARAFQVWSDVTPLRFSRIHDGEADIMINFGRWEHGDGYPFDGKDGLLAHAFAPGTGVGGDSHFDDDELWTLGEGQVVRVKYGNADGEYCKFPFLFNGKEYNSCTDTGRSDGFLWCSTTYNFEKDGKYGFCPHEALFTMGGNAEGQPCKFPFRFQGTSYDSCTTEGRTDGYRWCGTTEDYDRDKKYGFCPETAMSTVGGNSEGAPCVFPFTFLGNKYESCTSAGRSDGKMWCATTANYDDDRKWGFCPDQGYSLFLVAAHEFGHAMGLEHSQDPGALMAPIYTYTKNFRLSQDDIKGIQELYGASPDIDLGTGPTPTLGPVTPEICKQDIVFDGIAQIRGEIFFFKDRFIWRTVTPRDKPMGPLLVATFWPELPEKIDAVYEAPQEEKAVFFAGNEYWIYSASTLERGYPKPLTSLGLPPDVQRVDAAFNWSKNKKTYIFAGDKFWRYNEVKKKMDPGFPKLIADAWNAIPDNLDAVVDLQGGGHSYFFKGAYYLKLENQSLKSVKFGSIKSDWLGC
The series can be described thus: off-target proteinase inhibition MMP2. Type of series: biochemical. The settings on record: read-out: Relative enzyme activity MMP2.

Another series addresses ADAM17 (Homo sapiens, UniProt P78536). The series can be described thus: off-target proteinase inhibition ADAM17. Type of series: biochemical. The settings on record: read-out: Relative enzyme activity ADAM17.
A further series deals with MMP13 (Homo sapiens, UniProt P45452). The series can be described thus: off-target proteinase inhibition MMP13. Format: biochemical. The settings on record: read-out: Relative enzyme activity MMP13.
The target of a further series is T5, mouse ovastacin (Mus musculus, UniProt Q6HA09).
T5 sequence (Q6HA09 86-435 limits assumed): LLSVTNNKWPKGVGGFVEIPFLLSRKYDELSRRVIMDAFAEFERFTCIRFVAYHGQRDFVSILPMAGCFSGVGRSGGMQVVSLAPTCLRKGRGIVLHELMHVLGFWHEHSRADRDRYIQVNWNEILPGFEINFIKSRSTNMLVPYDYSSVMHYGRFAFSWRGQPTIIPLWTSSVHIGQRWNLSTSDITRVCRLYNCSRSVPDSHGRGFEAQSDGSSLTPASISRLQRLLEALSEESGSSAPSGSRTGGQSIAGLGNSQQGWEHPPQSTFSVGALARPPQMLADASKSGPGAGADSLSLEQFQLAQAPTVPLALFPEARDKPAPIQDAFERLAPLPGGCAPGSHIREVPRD
The series can be described thus: ovastacin inhibition, fluorogenic enzyme activity assay.

“And” between values parts separate entries of the source, which are not always exact repeats. Equal entries are not always repeated.

Sequence of MMP9 (P14780 107-707 limits assumed): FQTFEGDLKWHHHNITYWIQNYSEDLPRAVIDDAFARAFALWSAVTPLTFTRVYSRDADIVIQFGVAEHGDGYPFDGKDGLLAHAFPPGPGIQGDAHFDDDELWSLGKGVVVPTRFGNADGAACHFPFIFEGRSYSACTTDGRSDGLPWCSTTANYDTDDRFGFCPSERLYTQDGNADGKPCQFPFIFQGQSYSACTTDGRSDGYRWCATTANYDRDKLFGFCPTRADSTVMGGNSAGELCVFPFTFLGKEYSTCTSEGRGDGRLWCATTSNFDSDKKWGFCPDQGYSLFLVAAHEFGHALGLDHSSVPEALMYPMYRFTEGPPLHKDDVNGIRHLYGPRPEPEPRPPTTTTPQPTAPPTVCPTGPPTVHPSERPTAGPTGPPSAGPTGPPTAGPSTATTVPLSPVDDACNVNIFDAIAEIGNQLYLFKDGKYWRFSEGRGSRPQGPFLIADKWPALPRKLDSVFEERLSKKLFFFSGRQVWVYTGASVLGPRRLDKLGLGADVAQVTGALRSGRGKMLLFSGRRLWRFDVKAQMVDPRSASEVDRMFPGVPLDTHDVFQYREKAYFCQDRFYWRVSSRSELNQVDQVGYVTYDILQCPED
Sequence of ADAM17 (P78536 215-824): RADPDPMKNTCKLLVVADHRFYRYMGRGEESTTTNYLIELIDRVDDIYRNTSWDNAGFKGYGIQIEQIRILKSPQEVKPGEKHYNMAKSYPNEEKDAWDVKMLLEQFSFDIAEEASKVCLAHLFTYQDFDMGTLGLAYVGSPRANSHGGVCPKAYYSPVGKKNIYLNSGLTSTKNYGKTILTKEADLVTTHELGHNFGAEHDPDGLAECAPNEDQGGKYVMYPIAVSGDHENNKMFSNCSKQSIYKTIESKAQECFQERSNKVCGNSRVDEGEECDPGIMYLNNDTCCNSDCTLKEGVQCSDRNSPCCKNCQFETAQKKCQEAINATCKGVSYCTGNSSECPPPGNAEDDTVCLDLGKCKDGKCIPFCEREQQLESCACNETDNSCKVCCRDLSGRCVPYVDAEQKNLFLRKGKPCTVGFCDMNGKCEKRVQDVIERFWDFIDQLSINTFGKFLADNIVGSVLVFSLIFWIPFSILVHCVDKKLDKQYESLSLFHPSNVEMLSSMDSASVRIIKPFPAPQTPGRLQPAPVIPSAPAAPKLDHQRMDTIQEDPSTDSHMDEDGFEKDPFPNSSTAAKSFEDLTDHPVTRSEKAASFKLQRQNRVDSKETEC

For orientation: Ki means a measure of affinity in units of concentration, obtained from inhibition or displacement. The term viability denotes a per cent measure of how many cells are alive, often set against a control. For `O=C(Cc1c(-c2ccccc2)noc1-c1ccccc1)NO` [2 c, 2‐(3,5‐Diphenylisoxazol‐4‐yl)ethanehydroxamic acid], the results for the Ki (in series [1]; at mouse ovastacin) were 813 nM and 66 nM, respectively. Further, the “fold increase in activity against meprin β compared to 2 a” value in series [1] (compared to pyrrole 2 a) was determined as 5 fold. In addition, the remaining activity at 10 µM is 86% at MMP9; 80% on ADAM10; 87% at MMP2; 62% on ADAM17; 80% on MMP13. Besides, the remaining activity at 200 µM at MMP9 is 16%; on ADAM10, 22%; on MMP2, 34%; at ADAM17 it was 9%; on MMP13 it was 31%. In addition, the viability at 24 h, 30 µM was 85% in “cell-viability assay [2]” and 96% in “cell-viability assay [4]”. Moreover, the “fold improvement in potency against meprin α compared to amine 1 d” value in series [3] (compared to 1 d) worked out at 2000 fold. In addition, the “fold increase in activity against meprin α compared to 2 a” value in [3] (compared to pyrrole 2 a) came to 5 fold. In series [3], the “SF: selectivity factor (K i app meprin β/K i app meprin α)” value (shortened to “SF: selectivity factor”) was 200 and 203. Moreover, the “SF Meprin α: selectivity factor (K i app ovastacin/K i app meprin α)” value (shortened to “SF Meprin α: selectivity factor”) at mouse ovastacin is reported as 17. Besides, the “SF Meprin β: selectivity factor (K i app ovastacin/K i app meprin β)” value (“SF Meprin β: selectivity factor” for short) at mouse ovastacin came out at 0.1.

As for `O=C(CCc1c(-c2ccccc2)n[nH]c1-c1ccccc1)NO` [2 f, 3‐(3,5‐Diphenyl‐1H‐pyrazol‐4‐yl)propanehydroxamic acid], the inhibition constant (Ki) worked out at 8030 nM in series [1], 76 nM in series [3] and 2420 nM at mouse ovastacin. In addition, the remaining activity at 10 µM turned out to be 93% at MMP9; 66% on ADAM10; 97% on MMP2; 76% on ADAM17; 93% at MMP13. The remaining activity at 200 µM on MMP9 stood at 65%; at ADAM10 it was 12%; at MMP2 it was 77%; on ADAM17, 27%; at MMP13, 68%. The viability at 24 h, 30 µM in “cell-viability assay [2]” and in “cell-viability assay [4]” was 93% throughout. Moreover, the “SF: selectivity factor” value in [3] stood at 106. Further, on mouse ovastacin, the “SF Meprin α: selectivity factor” value turned out to be 32. Further, on mouse ovastacin, the “SF Meprin β: selectivity factor” value is reported as 0.3.

In the case of `O=C(Cn1c(-c2ccccc2)nnc1-c1ccccc1)NO` [2 g, 2‐(3,5‐Diphenyl‐1,2,4‐triazol‐4‐yl)ethanehydroxamic acid], the inhibition constant (Ki) is 8680 nM in [1], 66 nM in [3] and 4880 nM at mouse ovastacin. In addition, the remaining activity at 10 µM at MMP9 came to 99%; at ADAM10 it was 89%; on MMP2, 95%; at ADAM17, 90%; on MMP13, 93%. In addition, the remaining activity at 200 µM at MMP9 amounted to 54%; on ADAM10, 83%; at MMP2 it was 70%; on ADAM17 it was 56%; at MMP13, 76%. Besides, the viability at 24 h, 30 µM in the series “cell-viability assay [2]” was 94%; in the series “cell-viability assay [4]”, 99%. Further, the “SF: selectivity factor” value in series [3] is listed as 132. The “SF Meprin α: selectivity factor” value at mouse ovastacin is listed as 74. Also, the “SF Meprin β: selectivity factor” value at mouse ovastacin is listed as 0.6.

For `O=C(Cn1c(-c2ccccc2)nc2ccccc21)NO` [4 c, 2‐(2‐Phenylbenzimidazol‐1‐yl)ethanehydroxamic acid], the inhibitory constant (Ki) in [1] came to 1620 nM; in [3] it was 163 nM; at mouse ovastacin, 2090 nM. The remaining activity at 10 µM on MMP9 was found to be 96%; at ADAM10, 87%; at MMP2 it was 89%; at ADAM17 it was 92%; on MMP13, 102%. The remaining activity at 200 µM on MMP9 came out at 68%; on ADAM10, 76%; on MMP2, 46%; at ADAM17 it was 56%; at MMP13, 72%. Moreover, the viability at 24 h, 30 µM in “cell-viability assay [2]” is 85%; in “cell-viability assay [4]” it was 94%. The “SF: selectivity factor” value in series [3] was 10. Besides, the “SF Meprin α: selectivity factor” value on mouse ovastacin was determined as 13. Besides, the “SF Meprin β: selectivity factor” value at mouse ovastacin is reported as 1.3.

(Values after PMC8048867 (Chemmedchem, 2020).)
